# According to US20260132128A1, “COMPOUND FOR RECOVERING P53 MUTATION FUNCTION AND USE THEREOF” (SHENZHEN ZHONGGE BIOLOGICAL TECHNOLOGY CO., LTD., priority 2022, published 2026):
# Like-named read-outs stand apart in the source and are kept apart here. Marks after values point to notes of the source that are not given here.
# Assays:
# p53 Y220C [1] = molecular target: T1, p53 Y220C (Homo sapiens, UniProt P04637, P309S/R273H/Y220C); test: DNA binding test (HTRF): binding of P53Y220C protein to DNA; assay type: biochemical; conditions: HTRF, activation of p53 Y220C (aa 94-312) binding to biotin DNA
# T1 construct: a truncated mutant containing only amino acids 94-312 of p53; made in house; host or cells: E. coli
# p53 Y220C [2] = molecular target: T2, p53 Y220C (Homo sapiens, UniProt P04637, Y220C); test: as above; assay type: biochemical; conditions: multiple ratio of EC50 of the compound to the reference compound, DNA binding test
# T2 construct: a truncated mutant containing only amino acids 94-312 of p53; made in house; host or cells: E. coli
# BxPC-3 cells = test: BxPC-3 cell proliferation test (CTG); assay type: cell-based; conditions: Homo sapiens, 144 h, 6 days
# Experimental: To detect the inhibitory effects of the aforementioned compounds on the proliferation ability of BxPC-3 cells, 125 BxPC-3 cells (ATCC®CRL-1687) were seeded into a 384-well plate (Corning 3765), 35 μL per well, and placed in a constant temperature incubator at 37° C. and 5% CO2 overnight. Then, 40 nL of the compound was added to the 384-well plate using an Echo 655 Liquid Handler, with a maximum final concentration of 10 μM, 1:3 serial dilution, and in a total of 10 doses. Incubation was performed at 37° C., 5% CO2 for 6 days. The plate was taken out from the incubator and equilibrated at room temperature for 10 minutes. 20 μL of CTG (Promage G7572) was added to each well of the plate according to the platemap. The plate was centrifuged at 1000 rpm for 1 minute. The lysis of cells was induced by mixing on a shaker for 2 minutes. The plate was centrifuged at 1000 rpm for 1 minute. Incubation was performed at room temperature for 10 minutes to stabilize luminescence signals. Luminescence values were recorded by Envision (PerkinElmer 2105-0020). GraphPad 9.0 was used to fit the inhibition rate and compound concentration into a nonlinear regression curve (dose response-variable slope) to calculate GI50, inhibition rate={1−(A−B)/(C−B)}*100%, A=signal value of compound; B=average signal of blank control; C=average signal of negative control (wherein the negative control was 0.1% DMSO).
# NUGC-3 cells = test: NUGC-3 cell proliferation assay (CTG); assay type: cell-based, human; conditions: for GI50: Homo sapiens, NUGC-3, 144 h, 6 days, CTG; for Compound GI50 (nM)/Reference compound GI50 (nM): multiple ratio of GI50 of the compound to the reference compound
# How it was run: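 NUGC-3 cells (250/well), plated overnight, were exposed 6 days at 37° C to compound, 10 doses of 1:3 dilutions from 10 μM top final. Viability by CellTiter-Glo luminescence; inhibition relative to 0.1% DMSO and blank, GI50 from variable-slope nonlinear fit.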
# [3] = Liver microsome stability test, human (HLM); assay type: in vitro ADME; conditions: human liver microsomes, NADPH; read-out: T1/2 (min) Human
# Experimental: (§1) The 10 mM test compound/ketanserin (Energy Chemical, Cat. No. E020711) stock solution was diluted with acetonitrile to 0.5 mM compound/reference compound. The frozen 100 mM NADPH (MCE, Cat. No. HYF003/CS-4998) was diluted with phosphate buffer solution to a concentration of 6 mM; 20 mg/mL HLM (BioIVT, Cat. No. X008067) or MLM (BioIVT, Cat. No. M00501) was diluted with phosphate buffer solution to a concentration of 0.75 mg/ml, and added to a 96-round well plate, respectively, and shaken evenly on an oscillator at 600 rpm. The above oscillated samples were pipetted 3 times with an electric pipettor and dispensed into a new 96-well plate (containing NADPH group (n=2), NADPH-free group was added at 0 and 45 min (n=1)), and there were a total of 5 groups of 0, 5, 15, 30 and 45 min, respectively. After pre-incubation of the 5 groups of samples at 37° C. for 5 min, glacial acetonitrile was quickly added to the 0 min group for precipitation, and after rapid vortexing, K-Buffer or NADPH was added with an electric pipettor. The remaining groups were sequentially added with 6 mM NADPH to start the reaction in the order of 45, 30, 15 and 5 min samples, and K-Buffer solution was added to the NADPH-free group. After mixing at 1000 rpm in an oscillating mixer for 10 s, they were continuously incubated at 37° C. for the corresponding time. The reaction was terminated by quickly adding glacial acetonitrile internal standard using an electric pipettor; after vortexing at 900 rpm for 10 seconds, heat sealing was performed, oscillation was performed on an oscillator for 10 minutes, centrifugation was performed at 4000 rpm for 50 minutes, the supernatant was collected and diluted with pure water, and the test compound and the reference compound were quantified by LC-MS/MS analysis.
# [4] = Liver microsome stability test, mouse (MLM); assay type: in vitro ADME; conditions: mouse liver microsomes, NADPH; read-out: T1/2 (min) Mouse
# Experimental: as §1
# [5] = Pharmacokinetic test in mice; assay type: in vivo; conditions: male, ICR, mouse, plasma
# Experimental: ICR male mice (15 to 35 g, 5 to 10 weeks old, Shanghai Xipuer-Bikai Experimental Animal Co., Ltd.) were selected as test animals in this study. The LC-MS/MS method was used to quantitatively determine drug concentrations in the plasma of mice at different time points after intravenous injection or oral gavage administration of the test compound to evaluate the pharmacokinetic characteristics of the compound in mice. The clear solution of the test compound was injected into ICR mice via the tail vein (without fasting, solvent: 40% hydroxypropyl-β-cyclodextrin) and administered to ICR mice by oral gavage (fasting for 10 to 14 hours, free drinking water, solvent: 0.2% hydroxypropyl cellulose, 0.5% Tween 80). For intravenous administration, blood was collected from the submandibular venous plexus at 0.033, 0.083, 0.25, 0.5, 1, 2, 4, 8, and 24 hours after administration, placed in an anticoagulant tube with EDTA-K2 (Jiangsu Kangjian Medical Supplies Co., Ltd.), mixed, and centrifuged at 2-8° C., 6800 g for 6 minutes to obtain plasma; for oral gavage administration, blood was collected from the submandibular venous plexus at 0.083, 0.25, 0.5, 1, 2, 4, 6, 8, and 24 hours after administration, placed in an anticoagulant tube with EDTA-K2 (Jiangsu Kangjian Medical Supplies Co., Ltd.), mixed, and centrifuged at 2-8° C., 6800 g for 6 minutes to obtain plasma. The blood drug concentration was determined by LC-MS/MS, and the relevant pharmacokinetic parameters were calculated by the non-compartmental linear logarithmic trapezoidal method using Phoenix WinNonlin™ Version 7.0 (Pharsight, USA) pharmacokinetic software.
# CYP 3A4 = molecular target: T3, CYP 3A4 (Homo sapiens, UniProt P08684); test: CYP 3A4 time-dependent inhibition test; assay type: in vitro ADME; conditions: midazolam substrate
# T3 construct: purchased BioIVT X008067
# Experimental: CYP 3A4 and the test compound or mifepristone of various concentrations were added to a 96-deep well plate for pre-incubation. The plate was placed in a water bath and preheated at 37° C. for 5 min. For the 0 min pre-incubation samples, midazolam substrate was added to the incubation plate, then 10 mM NADPH solution was added, and the reaction was carried out in a 37° C. water bath for 5 min; for the 30 min pre-incubation samples with NADPH, 10 mM NADPH solution was added to the incubation plate, pre-incubated in a 37° C. water bath for 30 min, and then midazolam substrate was added and reacted in a 37° C. water bath for 5 min; for the 30 min pre-incubation samples without NADPH, the incubation plate was pre-incubated in a 37° C. water bath for 30 min, then midazolam substrate was added, 10 mM NADPH solution was added, and the reaction was carried out in a 37° C. water bath for 5 min. After the reaction was completed, the quenching solution (500 nM tolbutamide (Bide Pharmaceuticals, Cat. No. BD154332) and 10 nM terfenadine (Sigma, Cat. No. T96532)) were added to quench the reaction, and the plate was centrifuged at 3,220 g for 40 min at 4° C. The supernatant was pipetted into a new plate, the supernatant was diluted with pure water and mixed well, and the sample was analyzed using UPLC-MS/MS.
# [6] = Caco-2 cell permeability test; assay type: in vitro ADME; conditions: human, pH 7.4, Caco-2, 10 μM
# Experimental: Caco-2 cells (ATCC, Cat. No. HTB-37) were inoculated to a 96-well plate (Corning HTS Transwell, Cat. No. 3391) at 1.25×10^5/cm2, and the culture medium (DMEM+10% FBS+1% Penicillin-Streptomycin Liquid (100×)+1% NEAA) was replaced every 3 to 4 days. The plate was placed in an incubator at 37° C. with 5% CO2 until a confluent cell monolayer was formed after 21 to 28 days. Before the transport experiment, the culture medium was removed from the cell culture plate, and the plate was washed twice with pre-warmed HBSS buffer (10 mM HEPES, pH 7.4), and 100 μL of HBSS buffer was added to each well. After incubation at 37° C. for 30 minutes, the TEER value was measured using a cell resistance meter (Millicell-ERS2) to confirm the integrity and density of the monolayer cells. The HBSS buffer was discarded, the upper plate containing the cell monolayer membrane was transferred to the corresponding receiving plate, 10 mM test compound stock solution was diluted to a concentration of 10 μM with HBSS transport buffer containing 0.5% BSA, and it was added to the apical side (A side) and basolateral side (B side), respectively. Incubation was carried out for 120 min at 37° C., 5% CO2, and 95% relative humidity, and the permeation of the test compound from A side to B side or from B side to A side and the efflux rate of the compound were determined. The test compound and the reference compound were quantified by LC-MS/MS analysis based on the peak area ratio of analyte/internal standard. The apparent permeability coefficient Papp (cm/s) was calculated using the following formula:
# [formula] • wherein, dCr/dt represented the functional relation between cumulative concentration of compound in receptor compartment and time; V represented the volume of solution in receptor compartment (0.1 mL at apical side, and 0.25 mL at basolateral side); A represented the transport surface area, i.e., the monolayer cell area was 0.0804 cm^2; CO represented the initial concentration of compound in donor compartment.
# The efflux ratio was calculated using the following formula: […]
# The percent recovery was calculated using the following formula:
# [formula] [formula] • wherein, Vd represented the volume of donor compartment (0.1 mL on the apical side and 0.25 mL on the basolateral side); C and Cr represented the final concentrations of the transported compound in the donor and receptor compartment, respectively; Cc represented the compound concentration in cell lysate; Vc represented the volume of insert well (which was 0.1 mL in this experiment).
# [7] = 0 min pre-incubation, read-out: IC50 (μM) 0 min
# [8] = 30 min pre-incubation with NADPH, read-out: IC50 (μM) 30 min, with NADPH
# [9] = 30 min pre-incubation without NADPH, read-out: IC50 (μM) 30 min, without NADPH
# T3 sequence (P08684 whole entry): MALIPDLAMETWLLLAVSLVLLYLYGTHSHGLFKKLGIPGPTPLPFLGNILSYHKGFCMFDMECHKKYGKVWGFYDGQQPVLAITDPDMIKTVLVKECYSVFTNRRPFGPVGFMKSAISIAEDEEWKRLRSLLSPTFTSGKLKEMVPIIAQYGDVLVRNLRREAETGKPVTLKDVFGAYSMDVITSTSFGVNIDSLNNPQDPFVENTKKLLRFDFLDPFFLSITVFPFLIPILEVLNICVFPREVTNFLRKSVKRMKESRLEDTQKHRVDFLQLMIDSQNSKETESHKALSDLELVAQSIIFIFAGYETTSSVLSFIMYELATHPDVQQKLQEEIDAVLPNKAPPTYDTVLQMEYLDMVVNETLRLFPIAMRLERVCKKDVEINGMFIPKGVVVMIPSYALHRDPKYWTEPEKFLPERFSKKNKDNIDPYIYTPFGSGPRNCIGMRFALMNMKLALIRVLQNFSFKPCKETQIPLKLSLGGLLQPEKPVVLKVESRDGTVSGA
Compound,EC50 (p53 Y220C [1]),Compound EC50 (nM)/Reference compound EC50 (nM) (p53 Y220C [2]),GI50 (BxPC-3 cells),GI50 (NUGC-3 cells),Compound GI50 (nM)/Reference compound GI50 (nM) (NUGC-3 cells),half-life [3],half-life [4],"AUC ([5]; 25 mg/kg, po 25 mpk)","Cmax ([5]; 25 mg/kg, po 25 mpk)","clearance ([5]; 2.5 mg/kg, iv 2.5 mpk)",IC50 (CYP 3A4; [7]),IC50 (CYP 3A4; [8]),IC50 (CYP 3A4; [9]),"efflux ratio at 120 min, 10 μM [6]","Papp A→B at 120 min, 10 μM ([6]; A to B)","Papp B→A at 120 min, 10 μM ([6]; B to A)"
"CNC(=O)c1ccc(NCC#Cc2cc3c(NC4CCC(N5CC6(COC6)C5)CC4F)cccn3c2CC(F)(F)F)c(OC)c1 (single isomer, unassigned) [Compound 65d]",< 0.1 µM,B (B: EC50 of the reference compound<EC50 of the compound≤3.0*EC50 of the reference compound),< 1 µM,< 1 µM,B (B: GI50 of the reference compound < GI50 of the compound ≤ 3.0 * GI50 of the reference compound),65.3 min,16.9 min,,,,,,,,,
"[2H]C([2H])([2H])NC(=O)c1ccc(NCC#Cc2nc3c(NC4CCC(N5CCOCC5)CC4F)cccn3c2CC(F)(F)F)c(OC([2H])([2H])[2H])c1 (single isomer, unassigned) [Compound 70d]",< 0.1 µM,A (A: EC50 of the compound≤EC50 of the reference compound),,< 1 µM,A (A: GI50 of the compound ≤ GI50 of the reference compound),,,59700 ng·h/mL,13100 ng/mL,11 mL/min/kg,5.95 µM,1.91 µM,6.65 µM,,,
CNC(=O)c1ccc(NCC#Cc2nc3c(NC4CC[C@@H](N5CC6(COC6)C5)C[C@@H]4F)cccn3c2CC(F)(F)F)c(OC2CC2)c1 (stereo partly shown) [Compound 57],,B (B: EC50 of the reference compound<EC50 of the compound≤3.0*EC50 of the reference compound),< 1 µM,,B (B: GI50 of the reference compound < GI50 of the compound ≤ 3.0 * GI50 of the reference compound),,,,,,,,,1.84,3.7 ×10⁻⁶ cm/s,6.82 ×10⁻⁶ cm/s
"CNC(=O)c1ccc(NCC#Cc2cc3c(N[C@@H]4CCN(C)C[C@@H]4F)cccc3n2CC(F)(F)F)c(OC)c1 [Reference compound, reference compound]",,,,,,24.9 min,17.1 min,,,,3.24 µM,0.58 µM,2.55 µM,,,
